The data set can be described thus: log p. It is filed as physicochemical.

With `CC1C=CCN(c2c(-c3c(F)cc(F)cc3F)c(Cl)nc3ncnn23)O1` (centres unmarked) [Example 246], the log p came out at 3.12.

For the compound `Clc1ccccc1-c1c(Cl)nc2ncnn2c1N1CCCC1` [Example 247], the log p was determined as 2.72.

Compound `CC1CCCCN1c1c(-c2ccccc2Cl)c(Cl)nc2ncnn12` (centres unmarked) [Example 248] yielded a log p of 3.6.

The compound `Fc1ccc(-c2c(Cl)nc3ncnn3c2N2CCCCN2)c(C(F)(F)F)c1` [Example 249] displayed a log p of 2.98.

For `Clc1nc2ncnn2c(N2CCCC2)c1-c1ccccc1` [Example 250], the log p was found to be 2.5.

In turn, `Clc1nc2ncnn2c(N2CCCCC2)c1-c1ccccc1` [Example 251] showed a log p of 3.05.

Regarding `Clc1nc2ncnn2c(N2CCOCC2)c1-c1ccccc1` [Example 252], the log p came out at 2.03.

Turning to `CC1CCN(c2c(-c3ccccc3)c(Cl)nc3ncnn23)CC1` [Example 253], the log p was 3.47.

`Clc1ccc(-c2c(Cl)nc3ncnn3c2N2CCOCC2)c(Cl)c1` [Example 254] registered a log p of 2.78.

As for `CC1CCCN1c1c(-c2ccccc2Cl)c(Cl)nc2ncnn12` (centres unmarked) [Example 255], the log p turned out to be 3.1.

Compound `CC1CCN(c2c(-c3ccccc3Cl)c(Cl)nc3ncnn23)CC1` [Example 256] showed a log p of 3.71.

Take `Clc1ccccc1-c1c(Cl)nc2ncnn2c1N1CCCCC1` [Example 257]: the log p was found to be 3.26.

`CC1CCCN1c1c(-c2ccccc2)c(Cl)nc2ncnn12` (centres unmarked) [Example 258] registered a log p of 2.87.

As for `CC1CCCCN1c1c(-c2ccccc2)c(Cl)nc2ncnn12` (centres unmarked) [Example 259], the log p is on record as 3.35.

`Fc1cccc(Cl)c1-c1c(Cl)nc2ncnn2c1N1CCCN1` [Example 260] came in with a log p of 2.29.

As for `Fc1ccc(-c2c(Cl)nc3ncnn3c2N2CCCN2)c(Cl)c1` [Example 261], the log p is reported as 2.39.

For `Fc1cc(F)c(-c2c(Cl)nc3ncnn3c2N2CCCN2)c(F)c1` [Example 262], the log p is 2.32.

In the case of `Clc1ccccc1-c1c(Cl)nc2ncnn2c1N1CCCN1` [Example 263], the log p turned out to be 2.2.

`CC1CNN(c2c(-c3c(F)cccc3Cl)c(Cl)nc3ncnn23)CC1C` (centres unmarked) [Example 264] came in with a log p of 3.32.

`CC1CCN(c2c(-c3ccc(F)cc3Cl)c(Cl)nc3ncnn23)NC1` (centres unmarked) [Example 265] had a log p of 3.22.

For the compound `CC1CNN(c2c(-c3ccc(F)cc3Cl)c(Cl)nc3ncnn23)CC1C` (centres unmarked) [Example 266], the log p came out at 3.43.

As for `CC1CCN(c2c(-c3c(F)cccc3Cl)c(Cl)nc3ncnn23)NC1` (centres unmarked) [Example 267], the log p is 3.01.

On to `Cc1cc(C)n(-c2c(-c3c(F)cccc3Cl)c(Cl)nc3ncnn23)n1` [Example 268], for which the log p is recorded as 2.87.

As for `Cc1cc(C)n(-c2c(-c3ccc(F)cc3Cl)c(Cl)nc3ncnn23)n1` [Example 269], the log p is listed as 2.94.

For the compound `CC1CNN(c2c(-c3c(F)cc(F)cc3F)c(Cl)nc3ncnn23)CC1C` (centres unmarked) [Example 270], the log p is listed as 3.35.

In the case of `CC1CCN(c2c(-c3ccccc3Cl)c(Cl)nc3ncnn23)NC1` (centres unmarked) [Example 271], the log p is 3.

Turning to `CC1C=NN(c2c(-c3ccccc3Cl)c(Cl)nc3ncnn23)CC1` (centres unmarked) [Example 272], the log p was found to be 2.79.

On to `CC1C=NN(c2c(-c3c(F)cc(F)cc3F)c(Cl)nc3ncnn23)CC1` (centres unmarked) [Example 273], for which the log p turned out to be 2.85.

For `CC1CCN(c2c(-c3c(F)cc(F)cc3F)c(Cl)nc3ncnn23)NC1` (centres unmarked) [Example 274], the log p came out at 3.05.

`CC1C=NN(c2c(-c3c(F)cccc3Cl)c(Cl)nc3ncnn23)CC1C` (centres unmarked) [Example 275] gave a log p of 3.15.

`CC1C=NN(c2c(-c3c(F)cc(F)cc3F)c(Cl)nc3ncnn23)CC1C` (centres unmarked) [Example 276]: the log p is on record as 3.14.

As for `CC1C=NN(c2c(-c3ccccc3Cl)c(Cl)nc3ncnn23)CC1C` (centres unmarked) [Example 277], the log p was 3.1.

`CC1CNN(c2c(-c3ccccc3Cl)c(Cl)nc3ncnn23)CC1C` (centres unmarked) [Example 278] came in with a log p of 3.3.

Compound `CC1CCN(c2c(-c3ccccc3C(F)(F)F)c(Cl)nc3ncnn23)CC1` [Example 279] had a log p of 3.8.

Regarding `CC1CCN(c2c(-c3c(F)cccc3Cl)c(C#N)nc3ncnn23)CC1` [Example 280], the log p stood at 3.37.

Source of the values: US20090149455A1, “Use of Triazolopyrimidines for Controlling Plant Diseases on Legumes” (Bayer CropScience AG, priority 2005, published 2009).
